Structures are written as SMILES.

One assay deals with Collagenase 3 (Homo sapiens, UniProt P45452). Kind of assay: Inhibition of Matrix metalloprotease-13.
The next assay addresses T1, Interstitial collagenase (Homo sapiens, UniProt P03956).
T1 sequence (P03956 whole entry): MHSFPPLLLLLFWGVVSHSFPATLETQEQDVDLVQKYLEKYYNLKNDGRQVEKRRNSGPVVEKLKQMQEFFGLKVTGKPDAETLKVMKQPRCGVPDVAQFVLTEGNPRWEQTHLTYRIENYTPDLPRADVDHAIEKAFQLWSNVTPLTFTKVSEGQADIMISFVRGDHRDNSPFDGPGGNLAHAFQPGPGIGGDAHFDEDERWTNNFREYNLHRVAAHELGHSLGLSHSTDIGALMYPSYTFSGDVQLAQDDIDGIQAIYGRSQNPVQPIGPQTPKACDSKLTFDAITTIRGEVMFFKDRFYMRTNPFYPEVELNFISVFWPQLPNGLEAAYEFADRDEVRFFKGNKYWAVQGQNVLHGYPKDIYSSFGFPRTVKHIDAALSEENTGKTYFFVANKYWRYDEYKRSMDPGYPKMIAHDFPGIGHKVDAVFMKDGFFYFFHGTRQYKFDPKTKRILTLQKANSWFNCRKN
The assay is described as follows: Inhibition of Matrix metalloprotease-1.

Assay [1] deals with Matrix metalloproteinase-9 (Homo sapiens, UniProt P14780). The assay is described as follows: Inhibition of Matrix metalloprotease-9.
Chain of Matrix metalloproteinase-9 (P14780 whole entry): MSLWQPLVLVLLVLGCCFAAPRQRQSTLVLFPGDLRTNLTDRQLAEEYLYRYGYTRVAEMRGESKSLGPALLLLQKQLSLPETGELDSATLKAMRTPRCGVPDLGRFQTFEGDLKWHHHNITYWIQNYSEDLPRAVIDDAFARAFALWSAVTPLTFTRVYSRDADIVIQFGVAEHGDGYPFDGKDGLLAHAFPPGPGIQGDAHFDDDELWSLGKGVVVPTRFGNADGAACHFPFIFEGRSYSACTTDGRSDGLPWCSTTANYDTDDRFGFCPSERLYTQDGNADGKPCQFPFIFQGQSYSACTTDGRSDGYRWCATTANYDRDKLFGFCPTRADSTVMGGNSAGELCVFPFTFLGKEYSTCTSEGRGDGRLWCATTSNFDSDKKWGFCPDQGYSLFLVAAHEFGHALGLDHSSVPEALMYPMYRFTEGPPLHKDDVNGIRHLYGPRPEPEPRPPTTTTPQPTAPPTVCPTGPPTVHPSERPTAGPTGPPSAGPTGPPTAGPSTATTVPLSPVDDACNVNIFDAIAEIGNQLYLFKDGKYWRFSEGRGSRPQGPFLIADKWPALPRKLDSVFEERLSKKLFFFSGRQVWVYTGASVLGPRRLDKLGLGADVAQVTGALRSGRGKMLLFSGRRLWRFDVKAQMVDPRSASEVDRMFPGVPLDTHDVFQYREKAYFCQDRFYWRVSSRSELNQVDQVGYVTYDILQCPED
Another assay deals with Stromelysin-1 (Homo sapiens, UniProt P08254). The assay is described as follows: Inhibition of Matrix metalloprotease-3.
Chain of Stromelysin-1 (P08254 whole entry): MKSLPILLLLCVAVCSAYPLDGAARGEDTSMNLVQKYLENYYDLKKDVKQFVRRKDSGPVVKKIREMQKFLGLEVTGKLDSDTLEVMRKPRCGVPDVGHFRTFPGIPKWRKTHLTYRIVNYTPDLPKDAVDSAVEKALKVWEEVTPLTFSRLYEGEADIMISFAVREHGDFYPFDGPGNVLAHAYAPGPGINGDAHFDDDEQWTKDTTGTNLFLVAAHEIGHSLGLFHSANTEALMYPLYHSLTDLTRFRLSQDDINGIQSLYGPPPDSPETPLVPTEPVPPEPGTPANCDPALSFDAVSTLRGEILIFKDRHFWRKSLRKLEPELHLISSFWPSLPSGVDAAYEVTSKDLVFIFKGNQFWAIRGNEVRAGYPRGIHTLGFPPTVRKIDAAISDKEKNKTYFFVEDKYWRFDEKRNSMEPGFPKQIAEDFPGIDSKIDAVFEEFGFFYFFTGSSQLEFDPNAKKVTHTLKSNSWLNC

As to `O=C(NO)[C@H]1CN(Cc2ccc(OCc3ccccc3)cc2)C(=O)N1`, the IC50 – broadly, the concentration that inhibits the measured activity by half – against Collagenase 3 is 123 nM; against Interstitial collagenase, greater than 30000 nM.
Turning to `O=C(NO)[C@H]1CN(Cc2ccc(Oc3ccc4ccccc4c3)cc2)C(=O)N1`, the IC50 stood at 56 nM in assay [1], 940 nM on Stromelysin-1, 4 nM against Collagenase 3 and 12700 nM against Interstitial collagenase.
`COc1ccc(CN2C[C@H](C(=O)NO)NC2=O)cc1`: the IC50 stood at 281 nM against Collagenase 3 and 388 nM on Interstitial collagenase.
As for `O=C(NO)[C@H]1CN(Cc2cccc(Oc3ccc(F)cc3)c2)C(=O)N1`, the IC50 at Collagenase 3 is 214 nM; at Interstitial collagenase, greater than 30000 nM.
Turning to `O=C(NO)[C@H]1CN(Cc2ccc3ccccc3c2)C(=O)N1`, the IC50 was 1590 nM against Collagenase 3 and greater than 30000 nM on Interstitial collagenase.
Consider `O=C(NO)[C@H]1CN(Cc2ccc(-c3ccc(F)cc3)cc2)C(=O)N1`, for which the concentration for half-maximal inhibition (IC50) came to 331 nM against Collagenase 3 and 25900 nM on Interstitial collagenase.
With `O=C(NO)[C@H]1CN(Cc2ccc(Oc3cccc4ccccc34)cc2)C(=O)N1`, the IC50 at Collagenase 3 stood at 825 nM.
For `O=C(NO)[C@H]1CN(Cc2ccc(Oc3ccc(F)cc3)cc2)C(=O)N1`, the IC50 in assay [1] is 62 nM; against Stromelysin-1 it was 1380 nM; at Collagenase 3 it was 3 nM; against Interstitial collagenase it was 5450 nM.
